# What was measured:
# OE19 cells = test: CTG assay of OE19 cells; format: cell-based; conditions: conclusion
# Experimental: OE19 cells with saturation of 80%-90% were digested with trypsin, centrifuged, resuspended and counted. The concentration of cells was adjusted to […]. OE19 cells were added to a 96-well cell culture plate to 8000 OE19 cells per well. The cells were cultured in a cell incubator containing 5% CO2 at 37° C. overnight.
# The stock solution of the assay compounds was serially 3-fold diluted with DMSO to a total of 10 concentrations. Before the start of the assay, the serially diluted assay compounds were further diluted to 10×compound solutions (the highest concentration of 100 μM containing 1% DMSO) with cell culture medium under sterile conditions. The prepared 10×compound solutions were added to the cell culture plate with 10 μL per well. […]
# After 72 hours of cell culture, the 96-well cell culture plate was taken out. […] The cell plate was placed in Envision for reading.
# The inhibition rate was calculated according to original data as follows: […]
# Non-linear regression analysis was performed using the processed data and GraphPad Prism 6 analysis software to obtain a dose-response curve, and the half-inhibitory concentration (IC50) of the assay compounds on OE19 cells was calculated.
# [1] = test system: subcutaneous xenograft tumor of human gastric cancer NCI-N87 cells; test: In vivo pharmacodynamics, NCI-N87 subcutaneous xenograft (Assay Example 3); set-up: species or system mouse
# Experimental: Purpose of the assay: in vivo efficacy of the assay compound disclosed herein on subcutaneous xenograft tumor of human gastric cancer NCI-N87 cells in a BALB/c nude mouse model was evaluated.
# Animals of the assay: female BALB/c nude mice, 6-8 weeks old, weighted 18-22 grams; supplier: Shanghai Ling Chang Biotechnology Co., Ltd.
# Human gastric cancer NCI-N87 cells were cultured in monolayer in vitro. The culture conditions were RPMI-1640 medium plus 10% fetal bovine serum, 100 U/mL penicillin, 100 U/mL streptomycin and 2 mM glutamine, 37° C., 5% CO2. The passaging was performed by the conventional digestion with trypsin-EDTA twice a week. When the cell saturation was 80%-90%, the cells were collected, counted and inoculated.
# 0.2 mL (10×10^6) of NCI-N87 cells (PBS+Matrigel, 1:1) were inoculated subcutaneously on the right back of each nude mouse. When the average tumor volume reached 158 mm^3, administration to each group was started.
# The assay compounds were formulated into 0.04 mg/mL and 0.08 mg/mL clear solution in the solvents of 10% NMP (N-methylpyrrolidone)+10% ethylene glycol stearate+80% water.
# The assay index was to investigate whether tumor growth is inhibited, delayed or cured. Tumor diameter was measured twice a week with a vernier caliper. The calculation formula of tumor volume was: V=0.5a×b^2, wherein a and b represent the long and short diameters of tumor, respectively.
# The antitumor efficacy of the compounds was evaluated by TGI (%) or tumor proliferation rate T/C (%). TGI (%) reflects tumor growth inhibition rate. […]
# Statistical analysis included mean and standard error of mean (SEM) of tumor volume at each time point in each group (See Table 13 for specific data). […] The comparison between groups was analyzed by T-test, and the comparison among three or more groups was analyzed by one-way ANOVA. […]
# CYP2D6 = target: T1, CYP2D6 (Homo sapiens, UniProt P10635); test: Inhibition of CYP enzyme activity in human liver microsome, CYP2D6; format: in vitro ADME; conditions: versus Poziotinib
# T1 construct: in the assay of CYP enzyme activity in human liver microsome; from tissue; host or cells: human liver microsome
# Source text: The results of the compound disclosed herein and the reference compound Poziotinib in the assay of CYP enzyme activity in human liver microsome were shown in the following table (Table 17).
# T1 sequence (P10635 whole entry): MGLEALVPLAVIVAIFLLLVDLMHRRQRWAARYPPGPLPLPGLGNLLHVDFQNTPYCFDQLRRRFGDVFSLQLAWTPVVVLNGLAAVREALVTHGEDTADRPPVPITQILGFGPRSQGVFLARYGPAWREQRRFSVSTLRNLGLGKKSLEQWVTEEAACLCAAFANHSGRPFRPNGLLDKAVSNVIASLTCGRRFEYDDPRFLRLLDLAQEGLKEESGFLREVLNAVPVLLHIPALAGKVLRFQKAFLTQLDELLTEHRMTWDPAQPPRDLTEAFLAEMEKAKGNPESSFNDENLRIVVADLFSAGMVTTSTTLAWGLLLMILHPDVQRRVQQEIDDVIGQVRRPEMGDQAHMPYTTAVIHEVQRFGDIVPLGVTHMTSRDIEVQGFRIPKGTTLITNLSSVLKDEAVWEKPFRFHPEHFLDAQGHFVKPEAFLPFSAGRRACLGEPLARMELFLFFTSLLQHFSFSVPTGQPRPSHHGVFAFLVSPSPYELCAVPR
smiles,measurement,setting,value
C=CC(=O)N1[C@@H]2CC[C@H]1C[C@H](Nc1cc3c(Nc4ccc(Cl)c(Cl)c4F)ncnc3cc1OC)C2 [Compound of formula (I)],inhibitory activity on the proliferation of OE19 cells (in words),OE19 cells,significant inhibitory activity
same,tumor inhibitory effect (in words),"[1]; 0.8 mg/kg, compared with the vehicle control group",significant tumor inhibitory effect
same,drug efficacy compared with Poziotinib (in words),[1]; low-dose group (0.4 mg/kg),comparable to or better than the reference compound Poziotinib
same,"activity on CYP2D6, times better than the reference compound",CYP2D6,6 times
